Results as given in ChEMBL document CHEMBL5614434, “A Lysosome-Targeting hNEU1 Inhibitor Treats Myocardial Infarction: A Potential Therapeutic Breakthrough” (J Med Chem, 2024).

Tests used:
[1] = Drug localization in lysosome of rat H9c2 cells by confocal microscopy based analysis; type: ADME, subcellular
[2] = Drug localization in Mitochondria of rat H9c2 cells by confocal microscopy based analysis; type: ADME

- Drug uptake [1]: Active
- Drug uptake [2]: Active
SMILES: CCC(CC)O[C@@H]1C=C(C(=O)OCCN2CCOCC2)C[C@H](NC(=S)Nc2ccc3c(c2)C(=O)OC32c3ccc(O)cc3Oc3cc(O)ccc32)[C@H]1NC(C)=O
